{"source": "paper PMC6888270", "about": "(International Journal of Molecular Sciences, 2019)", "key": {"[1]": {"test_system": "β-catenin activation", "test": "Immunofluorescence of active β-catenin in HEK293/GnRHR cells", "type": "cell-based, human", "conditions": "1 µM GnRH + 1 µM antagonist, 1 h", "experimental": "In order to evaluate the activation of phospho-proteins and β-catenin by Western blotting and immunofluorescence, 1 × 10^5 HEK293 cells were transiently transfected in a 24-well plate. To this purpose, 500 ng of GnRHR-HA-encoding vector diluted in 2 µL/well Lipofectamine® 2000 Transfection Reagent (Invitrogen) were used, according to the manufacturer’s instructions. Transfected HEK293 cells (HEK293/GnRHR) were cultured for 48 h and maintained over-night in serum-free medium before experiments.\n3 × 10^4 HEK293/GnRHR and mock-transfected HEK293 cells (negative control) were plated on gelatine-treated slides. […] As a positive control, cells were treated for 16 h with 100 nM of the selective glycogen synthase kinase 3 (GSK3) inhibitor, CHIR99021 (Sigma-Aldrich), which stabilizes free cytosolic β-catenin [68]. After stimulations, cells were washed in PBS with Ca^2+/Mg^2+ and fixed for 20 min in paraformaldehyde 4%/PBS. Cell monolayers were washed by PBS and permeabilized using 0.1% Triton X-100. Samples were incubated in 4% bovine serum albumin (BSA)/PBS, for 1 h at room temperature (RT), before incubation with a mouse primary antibody targeting β-catenin (#05-665, 1:300 dilution in 4% BSA/PBS; Merck KGaA) overnight at 4 °C. Following washing, cells were then incubated with Cy3-conjugated anti-mouse IgG secondary antibody (#C2181, 1:200 dilution in 4% BSA/PBS; Sigma-Aldrich) for 1 h at RT. Cell monolayers were then stained for 10 min with 4′,6-diamidino-2-phenylindole (DAPI) (Sigma-Aldrich) and washed in PBS before slide treatment by polyvinyl alcohol mounting medium with 1,4-diazabicyclo[2.2.2]octane (DABCO®) (Sigma-Aldrich). Fluorescent signals were detected using the Eclipse Ni-E microscope (Nikon Instruments BV, Amsterdam, The Netherlands)."}, "[2]": {"test_system": "Lhb gene expression", "test": "Lhb gene expression by qRT-PCR in LβT2 cells", "type": "cell-based, mouse", "conditions": "1 µM GnRH + 1 µM antagonist, 24 h, n = 4", "experimental": "LβT2 cells were seeded in 24-well plates (2 × 10^5 cells/well) and cultured for 24 h in DMEM supplemented with 10% Charcoal Stripped FBS, 4.5 g/L glucose, 100 IU/mL penicillin, 0.1 mg/mL streptomycin, and 1 mM glutamine (all from Sigma-Aldrich) before treatments. […] Samples were lysed for RNA extraction using TRIzolTM Reagent (Invitrogen) and equal amounts of total RNA were used for cDNA synthesis performed using the iScript reverse transcriptase (BioRad), as previously described. qRT-PCR was carried out in triplicates on the CFX96TM Real-Time PCR Detection System (BioRad) using the following primers pairs: [NT] for mouse Lhb; [NT] for mouse Gapdh. Primer sequences were drawn using the Mus musculus Lhb (NCBI Reference Sequence: NM_008497.2) and Gapdh (NM_008084.3) mRNAs as templates. Gene expression of Lhb was normalized to mouse Gapdh gene expression using the 2^-ΔΔCt method."}, "[3]": {"molecular_target": "T1, GnRH receptor (GnRHR) (Homo sapiens, UniProt P30968)", "T1 sequence (P30968 1-328)": "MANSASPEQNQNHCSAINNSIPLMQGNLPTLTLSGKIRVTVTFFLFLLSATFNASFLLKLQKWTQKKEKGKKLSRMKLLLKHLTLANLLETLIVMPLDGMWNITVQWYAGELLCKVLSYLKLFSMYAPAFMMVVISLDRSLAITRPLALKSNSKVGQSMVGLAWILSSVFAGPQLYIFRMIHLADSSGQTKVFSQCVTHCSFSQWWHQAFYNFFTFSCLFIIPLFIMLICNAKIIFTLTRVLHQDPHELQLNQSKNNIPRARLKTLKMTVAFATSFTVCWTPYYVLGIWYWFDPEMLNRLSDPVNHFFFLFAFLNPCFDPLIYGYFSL", "test": "BRET measurement of GnRH-induced intracellular Ca2+ increase in SH-SY5Y/GnRHR cells", "type": "cell-based", "design": "HA (hemagglutinin); expressed in transfected cells", "conditions": "means±SEM, n=6", "experimental": "(§1) Different transfection protocols were followed, depending on the endpoint to be measured. For BRET experiments, 3 × 10^4 cells were transiently transfected using vectors expressing the cAMP-CAMYEL or the aequorin-Ca^2+ BRET biosensor-encoding cDNA [59], as appropriate, together with the GnRHR-HA-encoding vector. Transfections were performed in a 96-well plate using the Metafectene PRO reagent (Biontex, München, Germany), as previously described. 100 ng of the receptor-encoding vector + 100 ng of the BRET biosensor-encoding vector were used for co-transfecting HEK293 cells, while SH-SY5Y cells were co-transfected using 200 ng of the receptor-encoding vector + 100 ng of the BRET biosensor-encoding vector. 200 ng of the aequorin-Ca^2+ BRET biosensor-encoding cDNA were used for transfecting LβT2 cells. Each sample was prepared in duplicate, cultured for 48 h and serum-starved over-night before experiments.\n(§2) To evaluate Ca^2+ increase, cells were incubated in Hank’s Balanced Salt Solution (HBSS) with Ca^2+ and Mg^2+, 1 mM Hepes and 5 µM Coelenterazine H (NanoLight Technologies, a division of Prolume, Ltd., Pinetop, AZ, USA), for 45 minutes, together with Cetrorelix, Ganirelix, Teverelix or vehicle, as appropriate. […] The EC50 was extrapolated from the curve obtained from each cell line. Cells treated by 5 µM of the sarco/endoplasmic reticulum Ca^2+ ATPase enzyme inhibitor, thapsigargin (Tocris Bioscience), served as positive control. Treatment by the vehicle (HBSS) was the negative control and used as a normalizer.\n(§3) BRET experiments were performed using a CLARIOstar plate reader equipped by a monocromator (BMG Labtech, Ortenberg, Germany), as previously described.\n(§4) Data were plotted on graphs as means ± standard error of means (SEM). The kinetics of intracellular Ca^2+ increase was represented by the BRET biosensor emission after background subtraction (vehicle). […] Data distributions were analyzed by D’Agostino and Pearson normality tests and inhibition of intracellular Ca^2+ increase by different concentrations of antagonist were compared using two-way analysis of variance (ANOVA), followed by Bonferroni post-test or Kruskal-Wallis and proper post-test. cAMP accumulation was represented as acceptor:donor emission ratio (induced BRET changes) after basal subtraction (untreated cells). Dose-response curves were obtained by data interpolation using non-linear regressions and normalized as percentage of the maximal response. EC50s, as well as half-maximal inhibitory concentrations (IC50), were compared by t-test or Mann–Whitney U test, while results obtained by Western blotting and qRT-PCR data were compared by one-way ANOVA followed by Bonferroni post-test. Statistical differences were considered as significant for p < 0.05. These analyses were performed using the GraphPad Prism software (GraphPad Software Inc., San Diego, CA, USA)."}, "[4]": {"molecular_target": "T1, GnRH receptor (GnRHR)", "test": "BRET measurement of GnRH-induced intracellular Ca2+ increase in HEK293/GnRHR cells", "type": "cell-based", "design": "HA (hemagglutinin); expressed in transfected cells; host or cells: HEK293 (transient co-transfection with BRET biosensor)", "conditions": "means ± SEM, n = 6", "experimental": "as §1, §2, §3, §4"}, "[5]": {"molecular_target": "Hemagglutinin-tagged GnRHR (GnRHR-HA) (UniProt P30968)"}, "[6]": {"molecular_target": "T2, murine GnRHR (mouse (endogenous in LβT2)) (UniProt Q01776)", "T2 sequence": "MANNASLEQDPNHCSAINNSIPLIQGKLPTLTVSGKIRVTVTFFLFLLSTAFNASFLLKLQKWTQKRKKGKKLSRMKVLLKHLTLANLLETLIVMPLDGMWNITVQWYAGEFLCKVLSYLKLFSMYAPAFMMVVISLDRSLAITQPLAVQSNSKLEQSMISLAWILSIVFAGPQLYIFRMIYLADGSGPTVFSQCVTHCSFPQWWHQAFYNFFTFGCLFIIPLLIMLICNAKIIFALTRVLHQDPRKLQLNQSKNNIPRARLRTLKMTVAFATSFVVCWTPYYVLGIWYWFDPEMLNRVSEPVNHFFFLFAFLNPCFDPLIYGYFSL"}}, "note": "Square brackets hold non-standard residues; d marks the D form. Peptide text beside a SMILES is read from it. Phe(4-Cl) = N[C@@H](Cc1ccc(Cl)cc1)C(=O)O; d2Nal = N[C@H](Cc1ccc2ccccc2c1)C(=O)O; d(hCit) = NC(=O)NCCCC[C@@H](N)C(=O)O; Lys(iPr) = CC(C)NCCCC[C@H](N)C(=O)O; d3Pal = N[C@H](Cc1cccnc1)C(=O)O"}
{"compound": "CC(=O)N[C@H](Cc1ccc2ccccc2c1)C(=O)N[C@@H](Cc1ccc(Cl)cc1)C(=O)N[C@H](Cc1cccnc1)C(=O)N[C@@H](CO)C(=O)N[C@H](Cc1ccc(O)cc1)C(=O)N[C@H](CCCCNC(N)=O)C(=O)N[C@@H](CC(C)C)C(=O)N[C@@H](CCCCNC(C)C)C(=O)N1CCC[C@H]1C(=O)N[C@H](C)C(N)=O", "note": "[Teverelix] (Ac-[d2Nal][Phe(4-Cl)][d3Pal]S[dY][d(hCit)]L[Lys(iPr)]P[dA]-NH2)", "values": [{"measurement": "effect on GnRH-induced active β-catenin staining", "setting": "[1]", "value": "did not result in any decrease of signal"}, {"measurement": "effect on GnRH-induced Lhb gene expression", "setting": "[2]", "value": "inhibited"}, {"measurement": "AUC of the kinetics of intracellular Ca2+ response", "setting": "[3]; 3xEC50 GnRH + 1 pM antagonist", "value": "143555±29053"}, {"measurement": "AUC of the kinetics of intracellular Ca2+ response", "setting": "[3]; 3xEC50 GnRH + 10 pM antagonist", "value": "128010±27347"}, {"measurement": "AUC of the kinetics of intracellular Ca2+ response", "setting": "[3]; 3xEC50 GnRH + 100 pM antagonist", "value": "110248±22209"}, {"measurement": "AUC of the kinetics of intracellular Ca2+ response", "setting": "[3]; 3xEC50 GnRH + 1 nM antagonist", "value": "96368±17786"}, {"measurement": "AUC of the kinetics of intracellular Ca2+ response", "setting": "[3]; 3xEC50 GnRH + 10 nM antagonist", "value": "81812±12486"}, {"measurement": "AUC of the kinetics of intracellular Ca2+ response", "setting": "[3]; 3xEC50 GnRH + 20 nM antagonist", "value": "38199±10646"}, {"measurement": "AUC of the kinetics of intracellular Ca2+ response", "setting": "[3]; 3xEC50 GnRH + 100 nM antagonist", "value": "76018±13231"}, {"measurement": "AUC of the kinetics of intracellular Ca2+ response", "setting": "[3]; 3xEC50 GnRH + 1 uM antagonist", "value": "5686±3292"}, {"measurement": "AUC of the kinetics of intracellular Ca2+ response", "setting": "[4]; 3 × EC50 GnRH + 1 pM antagonist", "value": "85,301 ± 21,321"}, {"measurement": "AUC of the kinetics of intracellular Ca2+ response", "setting": "[4]; 3 × EC50 GnRH + 10 pM antagonist", "value": "98,939 ± 27,373"}, {"measurement": "AUC of the kinetics of intracellular Ca2+ response", "setting": "[4]; 3 × EC50 GnRH + 100 pM antagonist", "value": "58,864 ± 27,101"}, {"measurement": "AUC of the kinetics of intracellular Ca2+ response", "setting": "[4]; 3 × EC50 GnRH + 1 nM antagonist", "value": "81,702 ± 18,920"}, {"measurement": "AUC of the kinetics of intracellular Ca2+ response", "setting": "[4]; 3 × EC50 GnRH + 10 nM antagonist", "value": "74,321 ± 17,569"}, {"measurement": "AUC of the kinetics of intracellular Ca2+ response", "setting": "[4]; 3 × EC50 GnRH + 75 nM antagonist", "value": "42,401 ± 8974"}, {"measurement": "AUC of the kinetics of intracellular Ca2+ response", "setting": "[4]; 3 × EC50 GnRH + 100 nM antagonist", "value": "29,931 ± 8731"}, {"measurement": "AUC of the kinetics of intracellular Ca2+ response", "setting": "[4]; 3 × EC50 GnRH + 1 µM antagonist", "value": "4107 ± 3804"}]}
{"compound": "Cetrorelix acetate (peptide)", "values": [{"measurement": "IC50 of inhibition of 3 × EC50 GnRH-induced cAMP accumulation (CAMYEL BRET), HEK293/GnRHR cells", "setting": "[5]", "value": 0.84, "unit": "nM"}, {"measurement": "IC50 of inhibition of 3 × EC50 GnRH-induced cAMP accumulation (CAMYEL BRET), SH-SY5Y/GnRHR cells", "setting": "[5]", "value": 1.56, "unit": "nM"}]}
{"compound": "Ganirelix acetate (peptide)", "values": [{"measurement": "IC50 of inhibition of 3 × EC50 GnRH-induced cAMP accumulation (CAMYEL BRET), HEK293/GnRHR cells", "setting": "[5]", "value": 0.61, "unit": "nM"}, {"measurement": "IC50 of inhibition of 3 × EC50 GnRH-induced cAMP accumulation (CAMYEL BRET), SH-SY5Y/GnRHR cells", "setting": "[5]", "value": 16.6, "unit": "nM"}]}
{"compound": "Gonadotropin releasing hormone (GnRH) (from UniProt P01148 24-33) (peptide)", "values": [{"measurement": "EC50 of GnRH-induced intracellular Ca^2+ accumulation (BRET biosensor), LβT2 cells", "setting": "[6]", "value": 1.8, "unit": "nM"}]}
{"compound": "Teverelix (peptide)", "values": [{"measurement": "IC50 of inhibition of 3 × EC50 GnRH-induced cAMP accumulation (CAMYEL BRET), HEK293/GnRHR cells", "setting": "[5]", "value": 0.49, "unit": "nM"}, {"measurement": "IC50 of inhibition of 3 × EC50 GnRH-induced cAMP accumulation (CAMYEL BRET), SH-SY5Y/GnRHR cells", "setting": "[5]", "value": 62.8, "unit": "nM"}]}
